ChEMBL document CHEMBL3727361, “Nitrogen bicyclic compounds as inhibitors for Scyl1 and Grk5” (2014)

test system: Beta-TC6; test: Increase in insulin release in mouse BetaTC6 cells assessed as relative insulin release activity at 10 uM incubated for 2 to 4 hrs by FRET based HTRF assay relative to sunitinib; type: functional

Q: Which Activity does the source give for `CC(C)Oc1cccc(-c2cn3c(-c4cccs4)cnc3cn2)c1` here?
A: Its Activity is 20%.

Q: How did the Activity turn out when `OCc1cccc(-c2cnc3ccc(-c4cccc(Oc5ccccc5)c4)nn23)c1` was run?
A: Its Activity is 20%.

Q: `CN(C)CC#Cc1ccc2nnc(-c3ccccc3)n2c1` was tested. Which Activity did it give?
A: Its Activity is 10%.

Q: Which Activity does the source give for `Fc1cccc(-c2cnc3cnc(-c4ccc(Cl)cc4)cn23)c1` here?
A: Its Activity is 20%.

Q: Which Activity does the source give for `NC(=O)c1ccc(-c2ccc3ncc(-c4ccccc4)n3n2)cc1` here?
A: The Activity was 20%.

Q: For `Cc1ccccc1-c1cnc2cnc(-c3cccs3)cn12`, which Activity is on record?
A: The Activity was 10%.

Q: For `CN(C)c1ccc(-c2ccc3ncc(-c4ccc(CO)cc4)n3n2)cc1`, which Activity is on record?
A: The Activity was 50%.

Q: How did the Activity turn out when `COc1cc(-c2ccc3nnc(-c4ccoc4)n3c2)cc(OC)c1OC` was run?
A: Its Activity is 50%.

Q: How did the Activity turn out when `c1cncc(-c2cnc3cnc(-c4ccc(N5CCOCC5)cc4)cn23)c1` was run?
A: Its Activity is 20%.

Q: With `Oc1cccc(-c2cnc3cnc(/C=C/c4ccccc4)cn23)c1` as the compound, how does the Activity read?
A: The Activity was 20%.

Q: For `CC(=O)Nc1ccc(-c2cnc3ccc(-c4ccc5c(c4)OCO5)nn23)cc1`, which Activity is on record?
A: The Activity was “>=100%”.

Q: Which Activity does the source give for `CNc1ccc2ncc(-c3cccc(C(=O)N(C)C)c3)n2n1` here?
A: The Activity was 20%.

Q: With `CS(=O)(=O)Nc1cccc(-c2cn3c(-c4cccnc4)cnc3cn2)c1` as the compound, how does the Activity read?
A: The Activity was 20%.

Q: For `CN1CCN(C(=O)c2ccc(-c3cnc4cnc(/C=C/c5ccccc5)cn34)cc2)CC1`, which Activity is on record?
A: The Activity was 10%.

Q: For `COc1ccc(-c2cnc3ccc(NCc4cccs4)nn23)c(OC)c1`, which Activity is on record?
A: Its Activity is 20%.

Q: Which Activity does the source give for `c1csc(-c2cnc3cnc(-c4cc5ccccc5s4)cn23)c1` here?
A: Its Activity is 50%.

Q: For `COc1ccc(-c2cnc3ccc(NCc4ccccn4)nn23)cc1OC`, which Activity is on record?
A: Its Activity is 20%.

Q: `Nc1ccc(-c2cn3c(NC(=O)c4ccccc4)cnc3cn2)cc1` was tested. Which Activity did it give?
A: Its Activity is 20%.

Q: Which Activity does the source give for `CC(=O)c1ccc(-c2cn3c(-c4ccc(C(=O)NC5CC5)cc4)cnc3cn2)s1` here?
A: The Activity was 20%.

Q: For `CN(C)C(=O)c1ccc(-c2cnc3cnc(-c4ccsc4)cn23)cc1`, which Activity is on record?
A: Its Activity is 20%.

Q: Which Activity does the source give for `CC(=O)Nc1cccc(-c2cn3c(-c4ccc(F)c(Cl)c4)cnc3cn2)c1` here?
A: Its Activity is 20%.

Q: Which Activity does the source give for `COc1ccccc1-c1cn2c(NC(=O)c3ccccc3)cnc2cn1` here?
A: Its Activity is 20%.

Q: Which Activity does the source give for `COc1cc(-c2cnc3ccc(NCc4cccc(Cl)c4)nn23)ccc1O` here?
A: The Activity was 20%.

Q: For `COc1ccc(CNc2ccc3ncc(-c4ccc(O)cc4)n3n2)cc1`, which Activity is on record?
A: Its Activity is 20%.

Q: How did the Activity turn out when `O=C(O)CCc1ccc(-c2cnc3cnc(-c4cccs4)cn23)cc1` was run?
A: The Activity was 20%.

Q: For `COc1ccccc1-c1ccc2ncc(-c3ccc(F)c(Cl)c3)n2n1`, which Activity is on record?
A: Its Activity is 20%.

Q: For `COc1ccc(-c2cnc3ccc(NCC4CC4)nn23)cn1`, which Activity is on record?
A: Its Activity is 10%.

Q: `CC(=O)c1ccc(-c2cnc3cccnn23)cc1` was tested. Which Activity did it give?
A: Its Activity is 10%.

Q: For `Fc1cccc(-c2cn3c(-c4ccccc4)cnc3cn2)c1`, which Activity is on record?
A: The Activity was 20%.

Q: For `COc1cc(OC)cc(-c2cnc3cnc(-c4cccc(OC(C)C)c4)cn23)c1`, which Activity is on record?
A: Its Activity is 20%.

Q: For `c1csc(-c2cn3c(-c4cccs4)cnc3cn2)c1`, which Activity is on record?
A: The Activity was 50%.

Q: For `OCc1cccc(-c2cnc3cnc(-c4cccs4)cn23)c1`, which Activity is on record?
A: The Activity was 20%.

Q: How did the Activity turn out when `Nc1cccc(-c2ccc3ncc(-c4cccc(Cl)c4)n3n2)c1` was run?
A: The Activity was 20%.

Q: With `COc1ccc(-c2ccc3nnc(-c4ccc(O)c(OC)c4)n3c2)cn1` as the compound, how does the Activity read?
A: The Activity was 50%.

Q: Which Activity does the source give for `CSc1ccc(-c2cn3c(-c4cccc(CO)c4)cnc3cn2)cc1` here?
A: The Activity was 20%.

Q: How did the Activity turn out when `CN(C)C(=O)c1ccc(-c2ccc3nnc(-c4cccc(C(F)(F)F)c4)n3c2)cc1` was run?
A: Its Activity is 20%.

Q: For `COc1ccc(-c2cnc3ccc(NCCCO)nn23)c(OC)c1`, which Activity is on record?
A: The Activity was 10%.

Q: For `CC(=O)c1cccc(-c2cn3c(NC(=O)CC4CC4)cnc3cn2)c1`, which Activity is on record?
A: Its Activity is 20%.

Q: `CCOc1cccc(-c2cn3c(-c4ccc5c(c4)OCO5)cnc3cn2)c1` was tested. Which Activity did it give?
A: The Activity was 50%.

Q: Which Activity does the source give for `Brc1cnc2ccc(NCCCN3CCOCC3)nn12` here?
A: Its Activity is 10%.

Q: `CCOc1ccc(-c2cnc3cccnn23)cc1` was tested. Which Activity did it give?
A: Its Activity is 10%.

Q: For `CN(C)C(=O)c1cccc(-c2ccc3nnc(-c4ccc5nccnc5c4)n3c2)c1`, which Activity is on record?
A: Its Activity is 50%.

Q: `CN1CCN(c2ccc(-c3cn4c(-c5ccc(C(=O)N(C)C)cc5)cnc4cn3)cn2)CC1` was tested. Which Activity did it give?
A: Its Activity is 20%.

Q: For `CC(C)N1CCN(c2ccc(-c3cn4c(-c5ccc(O)cc5)cnc4cn3)cc2)CC1`, which Activity is on record?
A: Its Activity is 20%.

Q: How did the Activity turn out when `CN(C)c1cccc(-c2cn3c(NC(=O)c4ccccc4)cnc3cn2)c1` was run?
A: Its Activity is 50%.

Q: How did the Activity turn out when `c1cnn2c(-c3ccc4c(c3)CCO4)cnc2c1` was run?
A: Its Activity is 10%.

Q: How did the Activity turn out when `CS(=O)(=O)Nc1cccc(-c2cn3c(-c4cccs4)cnc3cn2)c1` was run?
A: The Activity was 20%.

Q: Which Activity does the source give for `Cc1ccc(CNc2ccc3ncc(-c4ccc(C(=O)NCCN(C)C)cc4)n3n2)c(C)c1` here?
A: Its Activity is 20%.

Q: With `CSc1ccc(-c2cnc3cccnn23)cc1` as the compound, how does the Activity read?
A: Its Activity is 10%.

Q: With `Clc1cccc(-c2nnc3ccc(-c4ncccn4)cn23)c1` as the compound, how does the Activity read?
A: The Activity was 10%.

Q: For `FC(F)(F)Oc1cccc(-c2nnc3ccc(-c4cccs4)cn23)c1`, which Activity is on record?
A: Its Activity is 50%.

Q: With `Fc1ccc(-c2cnc3cnc(-c4ccco4)cn23)cc1Cl` as the compound, how does the Activity read?
A: Its Activity is 20%.

Q: With `Fc1cccc(-c2cnc3cnc(-c4ccccc4)cn23)c1` as the compound, how does the Activity read?
A: The Activity was 20%.

Q: With `CN1CCN(C(=O)c2cccc(-c3cnc4cnc(-c5ccc6c(c5)OCO6)cn34)c2)CC1` as the compound, how does the Activity read?
A: Its Activity is 20%.

Q: With `COc1cc(-c2nnc3ccc(-c4cccc(F)c4)cn23)ccc1O` as the compound, how does the Activity read?
A: The Activity was 50%.

Q: `Oc1ccc(-c2cnc3cnc(-c4ccc(Cl)cc4)cn23)cc1` was tested. Which Activity did it give?
A: Its Activity is 20%.

Q: For `COc1ccc(-c2cnc3cnc(-c4ccc(CO)cc4)cn23)cc1`, which Activity is on record?
A: The Activity was 50%.

Q: `COc1cccc(CC(=O)Nc2cnc3cnc(-c4cccs4)cn23)c1` was tested. Which Activity did it give?
A: The Activity was 20%.

Q: Which Activity does the source give for `CN1CCN(C(=O)c2cccc(-c3cnc4cnc(-c5cccc(Cl)c5)cn34)c2)CC1` here?
A: Its Activity is 20%.

Q: How did the Activity turn out when `c1csc(-c2cn3c(-c4ccncc4)cnc3cn2)c1` was run?
A: Its Activity is 20%.

Q: `Nc1ccc(-c2cnc3ccc(Cc4ccccc4)nn23)cn1` was tested. Which Activity did it give?
A: Its Activity is 20%.

Q: How did the Activity turn out when `CCOc1cccc(-c2cn3c(-c4cccc(CO)c4)cnc3cn2)c1` was run?
A: The Activity was 20%.

Q: `COc1cc(-c2cnc3cnc(-c4ccc(OCCCN(C)C)nc4)cn23)ccc1O` was tested. Which Activity did it give?
A: The Activity was 20%.

Q: `Fc1cccc(-c2ccc3ncc(-c4ccc5c(c4)OCO5)n3n2)c1` was tested. Which Activity did it give?
A: Its Activity is 20%.

Q: For `FC(F)(F)c1cccc(C#Cc2ccc3nnc(-c4ccncc4)n3c2)c1`, which Activity is on record?
A: The Activity was 10%.

Q: For `CN(C)c1cccc(-c2ccc3ncc(-c4cccs4)n3n2)c1`, which Activity is on record?
A: The Activity was 20%.

Q: `COc1ccc(-c2ccc3nnc(-c4ccccc4C)n3c2)cc1OC` was tested. Which Activity did it give?
A: Its Activity is 50%.

Q: For `c1cncc(-c2cnc3ccc(-c4cccs4)nn23)c1`, which Activity is on record?
A: The Activity was 20%.

Q: `Cc1ccc(CNc2ccc3ncc(-c4ccc(O)cc4)n3n2)c(C)c1` was tested. Which Activity did it give?
A: Its Activity is 20%.

Q: Which Activity does the source give for `Nc1ccc(-c2cn3c(-c4ccc5c(c4)OCO5)cnc3cn2)cn1` here?
A: The Activity was 10%.

Q: For `Oc1cccc(-c2cnc3ccc(-c4cccc5ncccc45)nn23)c1`, which Activity is on record?
A: The Activity was 10%.

Q: How did the Activity turn out when `COc1cccc(CC(=O)Nc2cnc3cnc(-c4ccc5[nH]ccc5c4)cn23)c1` was run?
A: The Activity was 10%.

Q: How did the Activity turn out when `Fc1ccc(-c2ccc3nnc(-c4cscn4)n3c2)cc1Cl` was run?
A: Its Activity is 20%.

Q: With `CS(=O)(=O)Nc1cccc(-c2ccc3nnc(-c4ccccc4)n3c2)c1` as the compound, how does the Activity read?
A: Its Activity is 50%.

Q: For `COCCNc1ccc2ncc(-c3ccc(C(=O)Nc4ccc(OC)cc4)cc3)n2n1`, which Activity is on record?
A: Its Activity is 20%.

Q: How did the Activity turn out when `CN1CCN(C(=O)c2cccc(-c3cnc4cnc(-c5ccc(OC(F)(F)F)cc5)cn34)c2)CC1` was run?
A: The Activity was 20%.

Q: Which Activity does the source give for `Nc1cccc(-c2cnc3ccc(NC4CCOCC4)nn23)c1` here?
A: The Activity was 20%.

Q: Which Activity does the source give for `CS(=O)(=O)c1cccc(-c2ccc3nnc(-c4ccccn4)n3c2)c1` here?
A: Its Activity is 20%.

Q: Which Activity does the source give for `c1csc(-c2ccc3nnc(-c4ccoc4)n3c2)c1` here?
A: The Activity was 50%.

Q: With `CC(=O)c1cccc(-c2cnc3ccc(-c4ccc(N)nc4)nn23)c1` as the compound, how does the Activity read?
A: Its Activity is 20%.
